Measurements taken from patent US20200069648A1, “HALOALLYLAMINE PYRAZOLE DERIVATIVE INHIBITORS OF LYSYL OXIDASES AND USES THEREOF” (Pharmaxis Ltd., priority 2017, published 2020).
pIC50: −log10 of the molar value. Counter-ions that a name gives are not always drawn.

Key:
Bovine LOX = target: T1, Bovine LOX (Bos taurus, UniProt P33072); experiment: LOX amine oxidase inhibition, peroxidase-coupled Amplex Red assay; format: biochemical; details: 30 min preincubation at 37° C., putrescine substrate
T1 sequence (P33072 170-418): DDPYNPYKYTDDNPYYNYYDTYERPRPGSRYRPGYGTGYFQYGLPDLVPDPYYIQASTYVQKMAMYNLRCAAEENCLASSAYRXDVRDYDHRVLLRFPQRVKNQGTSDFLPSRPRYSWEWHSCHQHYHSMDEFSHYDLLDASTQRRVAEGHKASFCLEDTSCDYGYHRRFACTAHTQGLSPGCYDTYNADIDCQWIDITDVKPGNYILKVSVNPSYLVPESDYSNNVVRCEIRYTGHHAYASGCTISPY
Procedure, shortened: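 Bovine LOX in 1.2 M urea, 50 mM sodium borate pH 8.2 […]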

Human LOXL2 = target: T2, Human LOXL2 (Homo sapiens, UniProt Q9Y4K0); experiment: LOXL2 amine oxidase inhibition, peroxidase-coupled Amplex Red assay; format: biochemical; details: 30 min preincubation at 37° C., putrescine substrate
T2 sequence (Q9Y4K0 26-774): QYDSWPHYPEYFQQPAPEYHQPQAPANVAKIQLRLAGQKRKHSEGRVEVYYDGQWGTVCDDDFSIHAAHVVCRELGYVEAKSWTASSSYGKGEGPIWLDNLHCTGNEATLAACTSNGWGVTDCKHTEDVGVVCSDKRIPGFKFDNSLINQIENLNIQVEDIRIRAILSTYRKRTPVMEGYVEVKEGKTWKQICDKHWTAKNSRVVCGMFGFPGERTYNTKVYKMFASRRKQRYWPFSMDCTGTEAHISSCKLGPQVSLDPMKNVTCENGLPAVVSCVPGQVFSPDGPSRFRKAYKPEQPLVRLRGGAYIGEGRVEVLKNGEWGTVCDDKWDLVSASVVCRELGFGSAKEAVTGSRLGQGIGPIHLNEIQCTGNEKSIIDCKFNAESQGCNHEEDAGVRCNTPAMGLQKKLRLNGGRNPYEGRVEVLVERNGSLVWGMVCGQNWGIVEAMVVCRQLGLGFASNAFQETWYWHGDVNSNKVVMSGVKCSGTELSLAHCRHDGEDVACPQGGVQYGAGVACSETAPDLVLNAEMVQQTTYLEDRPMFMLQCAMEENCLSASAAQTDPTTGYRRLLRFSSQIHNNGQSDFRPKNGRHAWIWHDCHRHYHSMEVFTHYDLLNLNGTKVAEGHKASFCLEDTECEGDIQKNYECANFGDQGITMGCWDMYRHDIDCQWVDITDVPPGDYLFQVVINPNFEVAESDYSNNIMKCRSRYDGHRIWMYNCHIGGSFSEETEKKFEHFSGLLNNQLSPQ
Procedure, shortened: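 Enzyme preincubated 30 min at 37 °C with compound (11-point curve) in 1.2 M urea, 50 mM borate pH 8.2 plus 1 μM mofegiline and 0.5 mM pargyline; putrescine at twice KM (10 mM for LOXL2), Amplex Red and HRP added. Fluorescence (565/590 nm) read every 2.5 min for 30 min; IC50 from kinetic slopes.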

Compound | pIC50 (Bovine LOX) | pIC50 (Human LOXL2)
CCOC(=O)c1c(Cc2ccc(S(=O)(=O)N(C)C)cc2)c(C)nn1C/C(F)=C/CN [Compound 27, (Z)-ethyl 1-(4-amino-2-fluorobut-2-enyl)-4-(4-(N,N-dimethylsulfamoyl)benzyl)-3-methyl-1H-pyrazole-5-carboxylate hydrochloride] | > 5.00 | > 6.00
Cc1nn(C/C(F)=C/CN)c(C)c1Cc1ccc(S(=O)(=O)N2CCCC2)cc1 [Compound 7, (Z)-4-(3,5-dimethyl-4-(4-(pyrrolidin-1-ylsulfonyl)benzyl)-1H-pyrazol-1-yl)-3-fluorobut-2-en-1-amine hydrochloride] | > 5.00 | > 6.00
Cc1nn(C/C(F)=C/CN)c(C(C)O)c1Cc1ccc(S(=O)(=O)N(C)C)c(Cl)c1 (single isomer, unassigned) [Compound 53, (Z)-4-((1-(4-amino-2-fluorobut-2-en-1-yl)-5-(1-hydroxyethyl)-3-methyl-1H-pyrazol-4-yl)methyl)-2-chloro-N,N-dimethylbenzenesulfonamide hydrochloride] | < 5.00 | > 6.00
Cc1c(Cc2ccc(S(=O)(=O)N(C)C)cc2)c(C(=O)O)nn1C/C(F)=C/CN [Compound 31, (Z)-1-(4-amino-2-fluorobut-2-enyl)-4-(4-(N,N-dimethylsulfamoyl)benzyl)-5-methyl-1H-pyrazole-3-carboxylic acid hydrochloride] | < 5.00 | > 6.00
Cc1nn(C/C(F)=C/CN)c(C)c1Cc1ccc(S(=O)(=O)NC(C)C)cc1 [Compound 11, (Z)-4-((1-(4-amino-2-fluorobut-2-en-1-yl)-3,5-dimethyl-1H-pyrazol-4-yl)methyl)-N-isopropyl benzenesulfonamide hydrochloride] | > 5.00 | > 6.00
Cc1nn(C/C(F)=C/CN)c(C)c1Cc1ccc(S(=O)(=O)N(C)C)c(OC(F)(F)F)c1 [Compound 17, (Z)-4-((1-(4-amino-2-fluorobut-2-en-1-yl)-3,5-dimethyl-1H-pyrazol-4-yl)methyl)-N,N-dimethyl-2-(trifluoromethoxy)benzenesulfonamide hydrochloride] | < 5.00 | > 6.00
Cc1nn(C/C(F)=C/CN)c(C)c1Cc1ccc(S(=O)(=O)N(C)C(C)C)cc1 [Compound 8, (Z)-4-((1-(4-amino-2-fluorobut-2-en-1-yl)-3,5-dimethyl-1H-pyrazol-4-yl)methyl)-N-isopropyl-N-methylbenzenesulfonamide hydrochloride] | > 5.00 | > 6.00
Cc1nn(Cc2ccc(S(C)(=O)=O)c(Cl)c2)c(C)c1C/C(F)=C/CN [Compound 24, (Z)-4-(1-(3-chloro-4-(methylsulfonyl)benzyl)-3,5-dimethyl-1H-pyrazol-4-yl)-3-fluorobut-2-en-1-amine hydrochloride] | > 5.00 | > 6.00
Cc1nn(C/C(F)=C/CN)c(C(C)O)c1Cc1ccc(S(=O)(=O)N(C)C)c(Cl)c1 (single isomer, unassigned) [Compound 52, (Z)-4-((1-(4-amino-2-fluorobut-2-en-1-yl)-5-(1-hydroxyethyl)-3-methyl-1H-pyrazol-4-yl)methyl)-2-chloro-N,N-dimethylbenzenesulfonamide hydrochloride] | < 5.00 | > 6.00
CNS(=O)(=O)c1ccc(Cn2nc(C)c(C/C(F)=C/CN)c2C)cc1Cl [Compound 22, (Z)-4-((4-(4-amino-2-fluorobut-2-en-1-yl)-3,5-dimethyl-1H-pyrazol-1-yl)methyl)-2-chloro-N-methylbenzenesulfonamide hydrochloride] | > 5.00 | > 6.00
CN(C)S(=O)(=O)c1ccc(-c2cnn(C/C(F)=C/CN)c2)cc1 [Compound 1, (Z)-4-(1-(4-amino-2-fluorobut-2-en-1-yl)-1H-pyrazol-4-yl)-N,N-dimethyl benzenesulfonamide hydrochloride] | > 5.00 | > 6.00
CNS(=O)(=O)c1ccc(Cn2nc(C)c(C/C(F)=C/CN)c2C)c(Cl)c1 [Compound 20, (Z)-4-((4-(4-amino-2-fluorobut-2-en-1-yl)-3,5-dimethyl-1H-pyrazol-1-yl)methyl)-3-chloro-N-methylbenzenesulfonamide hydrochloride] | > 5.00 | > 6.00
Cc1nn(Cc2ccc(S(C)(=O)=O)cc2Cl)c(C)c1C/C(F)=C/CN [Compound 21, (Z)-4-(1-(2-chloro-4-(methylsulfonyl)benzyl)-3,5-dimethyl-1H-pyrazol-4-yl)-3-fluorobut-2-en-1-amine hydrochloride] | > 5.00 | > 6.00
Cc1nn(C/C(F)=C/CN)c(C)c1Cc1cccc(S(=O)(=O)N(C)C)c1 [Compound 5, (Z)-3-((1-(4-amino-2-fluorobut-2-en-1-yl)-3,5-dimethyl-1H-pyrazol-4-yl)methyl)-N,N-dimethyl benzenesulfonamide hydrochloride] | < 5.00 | > 6.00
Cc1nn(C/C(F)=C/CN)c(C)c1Cc1ccc(S(C)(=O)=O)c(Cl)c1 [Compound 16, (Z)-4-(4-(3-chloro-4-(methylsulfonyl)benzyl)-3,5-dimethyl-1H-pyrazol-1-yl)-3-fluorobut-2-en-1-amine hydrochloride] | > 5.00 | > 6.00
